# Test results from US20250262336A1, “[177LU] LUTETIUM-PSMA I&T COMPOSITION AND DOSIMETRY, KIT, METHOD OF MAKING, AND METHOD OF USING THEREOF” (Curium US LLC, priority 2023, published 2025).
# Tests used:
# [1] = Cycle 3 plasma PK modelling; format: in vivo, human; settings: n = 15
# Method: Whole blood samples were collected as detailed in the protocol Schedule of Events i.e. pre-injection, and then at 1 h, 4 h, 24 h, 48 h, and 168 h post-injection. The samples were first centrifuged to separate plasma, and the radioactivity in the plasma was then measured using a gamma counter. Plasma concentrations were subsequently fitted with a bi-exponential function to derive outcome parameters such as the half-life and clearance rate of the radiopharmaceutical in the plasma.
# (§1) Blood samples were obtained for 15 out of 16 patients at cycle 3. Patients 12-004 had blood taken only at the 24 h timepoint and, therefore, was not included in the plasma PK analysis. Consistent with Cycle 1, the time-course of plasma concentrations was similar among the patients. The ranges of PK parameters obtained at cycle 3 were similar to those from Cycle 1 data (Tables 9A and 9B).
# as §1, with “(Table 29). See Table 29) Cycle 3 PK plasma modeling results (n15)” for “(Tables 9A and 9B).”
# [2] = Cycle 1 biodistribution: SPECT/CT time-activity curves (fraction of injected activity); format: in vivo, human; settings: excluding patient 42-030
# Method: This Example presents the biodistribution, dosimetry, and pharmacokinetics (PK) results of a PK/Dosimetry sub-study performed as part of a Phase III trial. Twenty-seven (27) patients were administered a target activity of 7.4±10% GBq of ^177Lu-PSMA-I&T and underwent single photon emission computed tomography (SPECT)/computed tomography (CT) imaging at four timepoints (4 h, 24 h, 48 h, and 168 h). Image data was analysed to compute time-activity curves (TACs) and subsequently time-integrated activity coefficients (TIACs) in each organ of interest and in organs showing appreciable and meaningful ^177Lu-PSMA-I&T activity. Organ Level Internal Dose Assessment (OLINDA 2.2.3) was used to compute organ and whole body absorbed radiation doses for each patient.
# All participating sites underwent a rigorous site setup process during which all dose calibrators, scanners, and gamma counters used in the sub-study were calibrated. Sites were allowed to enroll patients in the sub-study only after the completion and approval of all site setup processes by Invicro. Patients underwent SPECT/CT imaging, with anatomical coverage typically extending from the salivary glands to the pelvis, following the administration of a targeted 7.4±10% GBq of ^177Lu-PSMA-I&T at cycle 1. SPECT/CT imaging was performed at four timepoints: 4 h, 24 h, 48 h, and 168 h post-injection. Additionally, a subset of patients imaged at Cycle 1 (16 out of 27), were also imaged at Cycle 3 (Table 2).
# Volume of interest (VOI) (kidneys, bladder, liver, lumbar vertebrae L2-L4, lacrimal glands, salivary glands [parotid and submandibular glands], and whole body) were delineated on each dataset by a trained image analyst. […]
# Clearance of the radiopharmaceutical was derived from a data-appropriate fit of each organ's TAC. […] TIACs were calculated through analytical integration of the curve fit extrapolated to infinity. […] The remainder activity was determined by subtracting the cumulative organ TIACs from the whole body TIAC. […]
smiles,measurement,setting,value
"O=C(O)CC[C@H](NC(=O)N[C@@H](CCCCNC(=O)CCCCCCC(=O)NCCCC[C@@H](NC(=O)[C@@H](Cc1ccccc1)NC(=O)[C@@H](Cc1ccc(O)c(I)c1)NC(=O)CC[C@H](C(=O)O)N1CCN(CC(=O)O)CCN(CC(=O)O)CCN(CC(=O)O)CC1)C(=O)O)C(=O)O)C(=O)O [^177Lu-PSMA-I&T, (3S,7 S,26R,29R,32R,37R)-29-benzyl-32-(4-hydroxy-3-iodobenzyl)-5,13,20,28,31,34-hexaoxo-37-(4,7,10-tris(carboxymethyl)-1,4,7,10-tetraazacyclododecan-1-yl)-4,6,12,21,27,30,33-heptaazaheptatriacontane-1,3,7,26,37-pentacarboxylic acid; lutetium-177 (III), metal not drawn]","AUC Total, Mean",[1],25.58 fIA/L × min
same,"AUC Total, max",[1],39.62 fIA/L × min
same,"AUC Total, median",[1],24.55 fIA/L × min
same,"AUC Total, min",[1],13.86 fIA/L × min
same,"Peak Concentration Value, Mean",[1],0.05 fIA/L
same,"Peak Concentration Value, max",[1],0.07 fIA/L
same,"Peak Concentration Value, median",[1],0.04 fIA/L
same,"Peak Concentration Value, min",[1],0.03 fIA/L
same,Time of Peak Concentration,[1],55.00 min
same,"Time of Peak Concentration, Mean",[1],60.67 min
same,"Time of Peak Concentration, max",[1],68.00 min
same,"Time of Peak Concentration, median",[1],60.00 min
same,"Vc, Mean",[1],16.40 L
same,"Vc, max",[1],24.53 L
same,"Vc, median",[1],16.42 L
same,"Vc, min",[1],10.66 L
same,"whole body activity retention at 4 h, max",[2],78%
same,"whole body activity retention at 4 h, min",[2],24%
same,whole body mean activity retention at 4 h,[2],44%±13%
